Data from patent publication US8658801B2, “Pesticides containing a bicyclic bisamide structure” (Syngenta Crop Protection, LLC, priority 2006, dated 2014).

Columns and labels:
Format in all cases: in vivo
[1] = test system: Plutella xylostella (Diamond Back Moth); experiment: Example B3: Plutella xylostella, larvicide, feeding/residual contact, preventive (artificial diet MTP); settings: 120 h, 5 days incubation, L2 larvae
Method: Plutella xylostella (Diamond Back Moth)
(§1) (Larvicide, Feeding/Residual Contact Activity, Preventive)
24-well microtiter plate (MTP) with artificial diet is treated with test solutions by pipetting. After drying, the MTP's are infested with larvae (L2)(10-15 per well). After an incubation period of 5 days, samples are checked for larval mortality, antifeedant and growth regulation. In this test, compounds listed in Table P above show good activity. In particular compounds P.1, P.2, P.3, P.4, P.5, P.6, P.7, P.9, P.10, P.11, P.12, P.13, P.15, P.16, P.17, P.18, P.19, P.20, P.21, P.22, P.23, P.25, P.26, P.27, P.28, P.29, P.30, P.31, P.32, P.33, P.34, P.35, P.36, P.37, P.38, P.39, P.40, P.41, P.42, P.43, P.44, P.46, P.47, P.48, P.49, P.50, P.51, P.52, P.53, P.54, P.55, P.56, P.57, P.58, P.59, P.60, P.61, P.63, P.64, P.67, P.68, P.69 P.70, P.72, P.74, P.77, P78 and P.79 show an activity of over 80% at a concentration of 400 ppm.

[2] = test system: Spodoptera littoralis (Egyptian Cotton Leafworm); experiment: Example B1: activity against Spodoptera littoralis, larvicide, feeding/residual contact, preventive (cotton leaf discs); settings: foliar, 72 h, 3 days after treatment, L1 larvae
Excerpt: Activity Against Spodoptera littoralis (Egyptian Cotton Leafworm)
as §1
The samples are checked for mortality, repellent effect, feeding behaviour, and growth regulation 3 days after treatment. In this test, compounds listed in Table P above show good activity. In particular compounds P.1, P.2, P.3, P.4, P.5, P.6, P.7, P.9, P.10, P.11, P.12, P.13, P.15, P.16, P.17, P.18, P.19, P.20, P.21, P.22, P.23, P.24, P.25, P.26, P.27, P.28, P.29, P.30, P.31, P.32, P.33, P.34, P.35, P.36, P.37, P.38, P.39, P.40, P.41, P.42, P.43, P.44, P.45, P.46, P.47, P.48, P.49, P.50, P.51, P.52, P.53, P.54, P.55, P.56, P.57, P.58, P.59, P.60, P.61, P.63, P.64, P.67, P.68 and P.70 show an activity of over 80% at a concentration of 400 ppm.

[3] = test system: Heliothis virescens (Tobacco Budworm); experiment: Example B2: activity against Heliothis virescens, ovo-larvicide, feeding/contact, curative; settings: 96 h, 4 days incubation, eggs 0-24 h old
Method: Activity Against Heliothis virescens (Tobacco Budworm)
(Ovo-Larvicide, Feeding/Contact Activity, Curative)
Eggs (0-24 h old) are placed in 24-well microtiter plate on artificial diet and treated with test solutions by pipetting. After an incubation period of 4 days, samples are checked for egg mortality, larval mortality, and growth regulation.

[4] = test system: Diabrotica balteata (Corn Root Worm); experiment: Example B4: Diabrotica balteata, larvicide, feeding/residual contact, preventive; settings: 120 h, 5 days incubation, L2 larvae
Method: Diabrotica balteata (Corn Root Worm)
as §1
After drying, the MTP's are infested with larvae (L2)(6-10 per well). After an incubation period of 5 days, samples are checked for larval mortality, antifeedant and growth regulation. In this test, compounds listed in Table P above show good activity. In particular compounds P.1, P.2, P.5, P.6, P.10, P.11, P.12, P.13, P.15, P.16, P.17, P.18, P.19, P.24, P.25, P.27, P.28, P.29, P.30, P.31, P.33, P.34, P.35, P.37, P.38, P.39, P.42, P.43, P.44, P.45, P.46, P.47, P.48, P.49, P.50, P.52, P.53, P.65, P.67, P.68, P.69, P.70, P.71, P.72, P.75, P.78, and P.79 show an activity of over 80% at a concentration of 400 ppm.

SMILES: CC(C)NC(=O)c1c(NC(=O)c2cc(C(F)(F)F)nn2-c2ncccc2Cl)ccc2cc[nH]c12 [P.1]
- pest or weed control at 400 ppm [1]: > 80%
- pest or weed control at 400 ppm [2]: > 80%
- pest or weed control at 400 ppm [3]: > 80%
- pest or weed control at 400 ppm [4]: > 80%

SMILES: O=C(NCC1CC1)c1c(NC(=O)c2cc(C(F)(F)F)nn2-c2ncccc2Cl)ccc2cn[nH]c12 [P.4]
- pest or weed control at 400 ppm [1]: > 80%
- pest or weed control at 400 ppm [2]: > 80%
- pest or weed control at 400 ppm [3]: > 80%

SMILES: O=C(NC1(C2CC2)CC1)c1c(NC(=O)c2cc(C(F)(F)F)nn2-c2ncccc2Cl)ccc2cn[nH]c12 [P.5]
- pest or weed control at 400 ppm [1]: > 80%
- pest or weed control at 400 ppm [2]: > 80%
- pest or weed control at 400 ppm [3]: > 80%
- pest or weed control at 400 ppm [4]: > 80%

SMILES: CSCC(C)(C)NC(=O)c1c(NC(=O)c2cc(C(F)(F)F)nn2-c2ncccc2Cl)ccc2cn[nH]c12 [P.7]
- pest or weed control at 400 ppm [1]: > 80%
- pest or weed control at 400 ppm [2]: > 80%
- pest or weed control at 400 ppm [3]: > 80%

SMILES: Cc1cc2c(ccc(C)[n+]2[O-])c(C(=O)NC(C)C)c1NC(=O)c1cc(C(F)(F)F)nn1-c1ncccc1Cl [P.21]
- pest or weed control at 400 ppm [1]: > 80%
- pest or weed control at 400 ppm [2]: > 80%
- pest or weed control at 400 ppm [3]: > 80%

SMILES: CCNC(=O)c1c(NC(=O)c2cc(C(F)(F)F)nn2-c2ncccc2Cl)c(C)cc2nc(C)ccc12 [P.23]
- pest or weed control at 400 ppm [1]: > 80%
- pest or weed control at 400 ppm [2]: > 80%
- pest or weed control at 400 ppm [3]: > 80%

SMILES: CCCc1nc2cc(C)c(NC(=O)c3cc(C(F)(F)F)nn3-c3ncccc3Cl)c(C(=O)NC(C)C)c2cc1CC [P.24]
- pest or weed control at 400 ppm [2]: > 80%
- pest or weed control at 400 ppm [4]: > 80%

SMILES: Cc1n[nH]c2c(C(=O)NC(C)C)c(NC(=O)c3cc(C(F)(F)F)nn3-c3ncccc3Cl)c(Cl)cc12 [P.69, 5-chloro-6-{[2-(3-chloro-pyridin-2-yl)-5-trifluoromethyl-2H-pyrazole-3-carbonyl]-amino}-3-methyl-1H-indazole-7-carboxylic acid isopropylamide]
- pest or weed control at 400 ppm [1]: > 80%
- pest or weed control at 400 ppm [3]: > 80%
- pest or weed control at 400 ppm [4]: > 80%

SMILES: Cc1n[nH]c2c(C(=O)NC3(C4CC4)CC3)c(NC(=O)c3cc(C(F)(F)F)nn3-c3ncccc3Cl)c(Cl)cc12 [P.72, 5-chloro-6-{[2-(3-chloro-pyridin-2-yl)-5-trifluoromethyl-2H-pyrazole-3-carbonyl]-amino}-3-methyl-1H-indazole-7-carboxylic acid bicyclopropyl-1-ylamide]
- pest or weed control at 400 ppm [1]: > 80%
- pest or weed control at 400 ppm [3]: > 80%
- pest or weed control at 400 ppm [4]: > 80%

SMILES: CNC(=O)c1c(NC(=O)c2cc(C(F)(F)F)nn2-c2ncccc2Cl)ccc2cccnc12 [P.74, 7-{[2-(3-chloro-pyridin-2-yl)-5-trifluoromethyl-2H-pyrazole-3-carbonyl]-amino}-quinoline-8-carboxylic acid methylamide]
- pest or weed control at 400 ppm [1]: > 80%
- pest or weed control at 400 ppm [3]: > 80%

SMILES: CC(C)NC(=O)c1c(NC(=O)c2cc(C(F)(F)F)nn2-c2ncccc2Cl)ccc2ncccc12 [P.75, 6-{[2-(3-chloro-pyridin-2-yl)-5-trifluoromethyl-2H-pyrazole-3-carbonyl]-amino}-quinoline-5-carboxylic acid isopropylamide]
- pest or weed control at 400 ppm [4]: > 80%

SMILES: CNC(=O)c1c(NC(=O)c2cc(C(F)(F)F)nn2-c2ncccc2Cl)c(C)cc2ncccc12 [P.77, 6-{[2-(3-chloro-pyridin-2-yl)-5-trifluoromethyl-2H-pyrazole-3-carbonyl]-amino}-7-methyl-quinoline-5-carboxylic acid methylamide]
- pest or weed control at 400 ppm [1]: > 80%
- pest or weed control at 400 ppm [3]: > 80%

SMILES: C#Cc1cc2cn[nH]c2c(C(=O)NC2(C3CC3)CC2)c1NC(=O)c1cc(C(F)(F)F)nn1-c1ncccc1Cl [P.79, 6-{[2-(3-chloro-pyridin-2-yl)-5-trifluoromethyl-2H-pyrazole-3-carbonyl]-amino}-5-ethynyl-1H-indazole-7-carboxylic acid bicyclopropyl-1-ylamide]
- pest or weed control at 400 ppm [1]: > 80%
- pest or weed control at 400 ppm [4]: > 80%
